Measured values published in patent US12377152B2, “Compounds for degrading alpha-synuclein aggregates and uses thereof” (APRINOIA THERAPEUTICS LIMITED, priority 2019, dated 2025).

Key:
α-synuclein [1] = biological target: T1, α-synuclein (Homo sapiens (Human), UniProt P37840); assay: In vitro fluorometric α-synuclein binding assay; details: 2 μM α-synuclein, 37° C., 1 hour, fluorescence
Experimental: (§1) (A) Expression and purification of recombinant wild-type human α-synuclein: 0.5 mM IPTG was used to induce production of wild type human α-synuclein by bacteria transformed with a full-length α-synuclein expression plasmid. After shaking at 16° C. for 20 hours, cell pellet was resuspended in lysis buffer (10 mM Tris, 1 mM EGTA, 0.75 mM NaCl, 1 mM PMSF, pH 7.5) and lysed by sonication followed by centrifugation (6000 g, 30 min, 4° C.). The supernatant was then boiled at 95° C. for 15 min with manual agitation by every 5 minutes, followed by centrifugation (6000 g, 30 min, 4° C.). Supernatant was dialyzed with (10 mM Tris, 1 mM EGTA, 50 mM NaCl, pH 7.5) buffer and concentrated with concentrator. The collected sample was loaded onto a Superdex200 column, the flow-through fraction was then loaded onto a Q-HP column. Collected fractions with α-synuclein eluates were pooled, concentrated and stored at −80° C.
(§2) (B) Preparation of aggregated α-synuclein: 5 mg/mL of α-synuclein in PBS buffer (pH 7.4) was incubated in tube with at 37° C. with shaking (700 rpm) for 5-10 days.
(C) In vitro fluorometric α-synuclein binding assays: 2 μM α-synuclein was incubated with serially diluted compound (three-fold serial dilutions, from 10 to 0.001 μM) in a 96-well plate at 37° C. for 1 hour. Fluorescence intensity was read by microplate spectrometer. Compound Kd values were calculated using the following equation: Y=Bmax*X/(Kd+X), where X is the concentration of compound; Y is the fluorescence signal of (compound+α-synuclein)−(compound+DMSO); and Bmax is the maximum signal.

α-synuclein [2] = biological target: T1, α-synuclein; assay: PBB5 competition assay; type: binding; details: 2 μM α-synuclein, 0.26 μM PBB5, 37° C., 1 hour
Experimental: as §1, §2
(D) PBB5 competition assay: 2 μM of α-synuclein was incubated with 0.26 μM 2-(4-(2-(methylamino)pyridine-5-yl)-1,3-butadiene-1-yl)benzothiazole-6-ol (PBB5) and serially diluted compound (three-fold serial dilution, from 10 to 0.001 μM) in a 96-well plate at 37° C. for 1 hour. Fluorescence intensity (excitation/emission=530/690 nm) of PBB5 was read by microplate spectrometer. Percentage of competition was calculated using the following equation: (Max−well of compound alone)/(Max−Min)*100%, where Max=(α-synuclein+PBB5) signals−(buffer+PBB5) signals; and Min=(buffer+PBB5) signals−(buffer+PBB5) signals. The IC50 value of each compound was calculated with GraphPad Prism software using the “4 Parameter Logistic Model or Sigmoidal Dose-Response Model”: Y=Bottom+(Top−Bottom)/(1+(IC50/X)^HillSlope)

α-synuclein aggregates = α-synuclein aggregates (Homo sapiens (Human), UniProt P37840); assay: ReNcell VM α-synuclein aggregation assay; type: cell-based; details: for DC50: ReNcell VM cells, read-out: Activity (DC50, concentration at which 50% of α-synuclein aggregates has been degraded); for inhibition of MJFR14 immunoreactivity: 24 hour treatment, differentiated ReNcell VM cells
Experimental: The ReNcell VM α-synuclein aggregation assay was conducted at Charles River Laboratories (CRL). ReNcell VM is an immortalized human neural progenitor cell line derived from the ventral mesencephalon region of the brain. ReNcell VM cells were selected as in vitro cellular model for the α-synuclein aggregation assay, based on their growth features, differentiation potential into terminally differentiated neurons and amenability to adenoviral transduction. Aggregated human wild type α-synuclein was overexpressed through adenoviral delivery. Aggregated α-synuclein was detected with the aggregate-selective anti-α-synuclein antibody MJFR14 using immunocytochemistry; total α-synuclein levels were detected with Syn205 (α/β-synuclein-specific antibody).
The ReNcell VM α-synuclein aggregation assay was applied for compound screening to identify compounds capable of degrading α-synuclein aggregates. […] Immunoreactivity toward aggregated (MJFR14) and total α-synuclein (Syn205) was quantified using high content-based segmentation of immunoactive areas in immunocytochemical images (performed with the IN Cell 2200 (GE Healthcare)), followed by quantification of immunofluorescent intensity (performed by CRL's developed algorithm using IN Cell Developer Toolbox software).
Percentage effect (PE): Inhibition in comparison to BLANK (0.1% DMSO).
PE=100−(signal of compound/average signal BLANK)×100
Compound-induced cytotoxicity (% remaining cells)
% remaining cells=(nuclei count of compound/average nuclei count of BLANK)×100

DC50 (α-synuclein aggregates) | inhibition of MJFR14 immunoreactivity (α-synuclein aggregates) | Compound | Kd (α-synuclein [1]) | IC50 (α-synuclein [2])
– | – | O=C1CCC(N2Cc3cc(OCCCCCNc4cc(-c5ccc(-c6nc7ccc(F)cc7s6)cc5)ccn4)ccc3C2=O)C(=O)N1 (stereo not shown) [Compound 165825] | – | > 10000 nM
– | – | COc1ccc2nc(-c3ccc(-c4ccnc(NCCOCCOc5ccc6c(c5)CN(C5CCC(=O)NC5=O)C6=O)c4)cc3)oc2c1 (stereo not shown) [Compound 166123] | 480 nM | 410 nM
– | – | CN(C)c1ccc(-c2ccc(-c3nc4ccc(C(=O)OCCOCCOCCOc5ccc6c(c5)CN(C5CCC(=O)NC5=O)C6=O)cc4s3)cc2)cn1 (stereo not shown) [Compound 166124] | 340 nM | 30 nM
– | – | O=C1CCC(N2Cc3cc(OCCOCCNc4cc(-c5ccc(-c6nc7ccc(F)cc7s6)c(C(F)(F)F)c5)ccn4)ccc3C2=O)C(=O)N1 (stereo not shown) [Compound 166965] | 220 nM | 10000 nM
0.9 to 10 µM | – | CN(C)c1ccc2nc(-c3ccc(-c4ccc(NCCOCCN5C(=O)CCC(N6C(=O)c7ccc(O)cc7C6=O)C5=O)nc4)cc3)sc2c1 (stereo not shown) [Compound 170351] | – | –
> 10 µM | – | CN(C)c1ccc2nc(-c3ccc(-c4ccc(NCCOCCOc5ccc6c(c5)CN(C5CCC(=O)NC5=O)C6=O)nc4)cc3)sc2c1 (stereo not shown) [Compound 170352] | – | –
> 10 µM | – | CN(C)c1ccc2nc(-c3ccc(-c4ccc(NCCOCCOc5ccc6c(c5)C(=O)N(C5CCC(=O)NC5=O)C6=O)nc4)cc3)sc2c1 (stereo not shown) [Compound 170353] | – | –
0.01 to 0.9 µM | – | O=C1CCC(N2C(=O)c3ccc(OCCOCCNc4ccc(-c5ccc(-c6cc7ccncc7[nH]6)cc5)cn4)cc3C2=O)C(=O)N1 (stereo not shown) [Compound 170354] | – | –
> 10 µM | – | CN(C)c1ccc(-c2ccc(-c3nc4ccc(NCCOCCOCCOCCOCCOCCNc5cccc6c5C(=O)N(C5CCC(=O)NC5=O)C6=O)cc4s3)cc2)cn1 (stereo not shown) [Compound 170355] | – | –
> 10 µM | – | CN(C)c1ccc(-c2ccc(-c3nc4ccc(NCCOCCNc5cccc6c5C(=O)N(C5CCC(=O)NC5=O)C6=O)cc4s3)cc2)cn1 (stereo not shown) [Compound 170356] | – | –
0.01 to 0.9 µM | concentration-dependent inhibition | CN(C)c1ccc(-c2ccc(-c3nc4ccc(NC(=O)CCOCCOCCOc5ccc6c(c5)CN(C5CCC(=O)NC5=O)C6=O)cc4s3)cc2)cn1 (stereo not shown) [Compound 170357] | – | –
> 10 µM | – | CN(C)c1ccc(-c2ccc(-c3nc4ccc(NC(=O)CCOCCOc5ccc6c(c5)CN(C5CCC(=O)NC5=O)C6=O)cc4s3)cc2)cn1 (stereo not shown) [Compound 170358] | – | –
> 10 µM | – | CN(C)c1ccc(-c2ccc(-c3cn4cc(OCCOCCOc5ccc6c(c5)CN(C5CCC(=O)NC5=O)C6=O)ccc4n3)cc2)c(F)n1 (stereo not shown) [Compound 170450] | – | –
> 10 µM | – | CN(C)c1ccc(-c2ccc(-c3cn4cc(OCCCCCOc5ccc6c(c5)CN(C5CCC(=O)NC5=O)C6=O)ccc4n3)cc2)c(F)n1 (stereo not shown) [Compound 170451] | – | –
> 10 µM | – | CN(C)c1ccc(-c2ccc(-c3nc4ccc(NC(=O)CCCOc5ccc6c(c5)CN(C5CCC(=O)NC5=O)C6=O)cc4s3)cc2)cn1 (stereo not shown) [Compound 170742] | – | –
> 10 µM | – | CN(C)c1ccc(-c2ccc(-c3nc4ccc(OCCOCCOCCOc5ccc6c(c5)CN(C5CCC(=O)NC5=O)C6=O)cc4s3)c(C(F)(F)F)c2)cn1 (stereo not shown) [Compound 174251] | – | –

DC50 (α-synuclein aggregates) | inhibition of MJFR14 immunoreactivity (α-synuclein aggregates) | Compound | Kd (α-synuclein [1]) | IC50 (α-synuclein [2])
> 10 µM | – | CN(C)c1ccc(-c2ccc(-c3nc4ccc(OC(=O)CCOCCOc5ccc6c(c5)CN(C5CCC(=O)NC5=O)C6=O)cc4s3)cc2)cn1 (stereo not shown) [Compound 175552] | – | –
> 10 µM | – | CN(C)c1ccc2nc(-c3ccc(-c4ccc(NCCOCCOc5ccc6c(c5)CN(C5CCC(=O)NC5=O)C6=O)nc4)cc3C(F)(F)F)sc2c1 (stereo not shown) [Compound 177031] | – | –
> 10 µM | – | CN1C(=O)CCC(N2Cc3cc(OCCOCCOc4ccc5nc(-c6ccc(-c7ccc(N(C)C)nc7)cc6)sc5c4)ccc3C2=O)C1=O (stereo not shown) [Compound 177036] | – | –
0.9 to 10 µM | – | COc1ccc2nc(-c3ccc(-c4ccc(NCCOCCOc5ccc6c(c5)CN(C5CCC(=O)NC5=O)C6=O)nc4)cc3)cn2c1 (stereo not shown) [Compound 177037] | – | –
> 10 µM | – | COc1ccc2nc(-c3ccc(-c4ccc(NCCOCCOc5cccc6c5C(=O)N(C5CCC(=O)NC5=O)C6=O)nc4)cc3)sc2c1 (stereo not shown) [Compound 177038] | – | –
> 10 µM | – | COc1ccc2nc(-c3ccc(-c4ccc(NCCOCCOc5ccc6c(c5)CN(C5CCC(=O)NC5=O)C6=O)nc4)cc3)sc2c1 (stereo not shown) [Compound 177039] | – | –
> 10 µM | – | COc1ccc2nc(-c3ccc(-c4ccnc(NCCOCCOCC(=O)NC(C(=O)N5C[C@H](O)C[C@H]5C(=O)NCc5ccc(-c6scnc6C)cc5)C(C)(C)C)c4)cc3)cn2c1 (stereo partly shown) [Compound 177685] | – | –
> 10 µM | – | Cc1ncsc1-c1ccc(CNC(=O)[C@@H]2C[C@@H](O)CN2C(=O)[C@@H](NC(=O)COCCOCCOc2ccc3nc(-c4ccc(-c5ccc(N(C)C)nc5)cc4)sc3c2)C(C)(C)C)cc1 [Compound 178884] | – | –
> 10 µM | – | Cc1ncsc1-c1ccc(CNC(=O)[C@@H]2C[C@@H](O)CN2C(=O)[C@@H](NC(=O)COCCOCCNc2ccc3nc(-c4ccc(-c5ccc(N(C)C)nc5)cc4C(F)(F)F)sc3c2)C(C)(C)C)cc1 [Compound 180187] | – | –
– | – | CN(C)c1ccc(-c2ccc(-c3nc4ccc(OCCOCCOc5cccc6c5C(=O)N(C5CCC(=O)NC5=O)C6=O)cc4s3)cc2)cn1 (stereo not shown) [Compound 180944] | 430 nM | 610 nM
< 0.01 µM | concentration-dependent inhibition | O=C1CCC(N2Cc3cc(OCCOCCNc4cc(-c5ccc(-c6nc7ccc(F)cc7s6)cc5)ccn4)ccc3C2=O)C(=O)N1 (stereo not shown) [Compound 180948] | – | –
> 10 µM | – | CN(C)c1ccc(-c2ccc(-c3nc4ccc(OCCOCCOc5cccc6c5CN(C5CCC(=O)NC5=O)C6=O)cc4s3)c(C(F)(F)F)c2)cn1 (stereo not shown) [Compound 180950] | – | –
> 10 µM | – | CN(C)c1ccc(-c2ccc(-c3nc4ccc(OCCCOc5ccc6c(c5)CN(C5CCC(=O)NC5=O)C6=O)cc4s3)cc2)cn1 (stereo not shown) [Compound 184605] | – | –
> 10 µM | – | CN(C)c1ccc(-c2ccc(-c3nc4ccc(NCCOCCOc5cccc6c5CN(C5CCC(=O)NC5=O)C6=O)cc4s3)c(C(F)(F)F)c2)cn1 (stereo not shown) [Compound 185563] | – | –
> 10 µM | – | CN(C)c1ccc(-c2ccc(-c3nc4ccc(OCCCCC(=O)Nc5cccc6c5CN(C5CCC(=O)NC5=O)C6=O)cc4s3)cc2)cn1 (stereo not shown) [Compound 189149] | – | –
> 10 µM | – | COc1ccc2nc(-c3ccc(-c4ccnc(NCCOCCOc5cccc6c5CN(C5CCC(=O)NC5=O)C6=O)c4)cc3)cn2c1 (stereo not shown) [Compound 190753] | – | –

Compound | DC50 (α-synuclein aggregates) | inhibition of MJFR14 immunoreactivity (α-synuclein aggregates) | Kd (α-synuclein [1]) | IC50 (α-synuclein [2])
CN(C)c1ccc(-c2ccc(-c3nc4ccc(OCCOCCOc5ccc6c(c5)CN(C5CCC(=O)NC5=O)C6=O)cc4s3)cc2)cn1 (stereo not shown) [Compound 163123] | > 10 µM | – | 260 nM | > 10000 nM
COc1ccc2nc(-c3ccc(-c4ccnc(NCCCCCOc5ccc6c(c5)CN(C5CCC(=O)NC5=O)C6=O)c4)cc3)cn2c1 (stereo not shown) [Compound 165802] | > 10 µM | – | 2440 nM | > 10000 nM
O=C1CCC(N2Cc3cc(OCCCC(=O)Nc4ccc(-c5ccc(-c6cc7ccncc7[nH]6)cc5)cn4)ccc3C2=O)C(=O)N1 (stereo not shown) [Compound 166099] | > 10 µM | – | 5630 nM | 40 nM
CN(C)c1ccc(-c2ccc(-c3nc4c(OCCOCCOc5ccc6c(c5)CN(C5CCC(=O)NC5=O)C6=O)cccc4s3)cc2)cn1 (stereo not shown) [Compound 166330] | > 10 µM | – | 590 nM | 2600 nM
O=C1CCC(N2Cc3cc(OCCOCCOc4ccc5nc(-c6ccc(-c7ccc(NC8CC8)nc7)cc6)sc5c4)ccc3C2=O)C(=O)N1 (stereo not shown) [Compound 177032] | > 10 µM | – | 60 nM | –
